Several values for one entry are separate records, joined by “and”; a condition that tells them apart may be missing. Equal entries are not always repeated.
Tests used:
F98 rat glioma cells [1] = assay: Cell viability assay (WST-8) in F98 cells; assay type: cell-based; settings: WST-8 test, read-out: IC50 (cytotoxicity)
Procedure: The cytotoxicity of KA-BSH was assayed using the water soluble tetrazolium (WST)-8 assay with a cell-counting kit (Wako Pure Chemicals, Osaka, Japan) following a modified version of the manufacturer-provided protocols. Relative cell survival was calculated according to Equation (1):(1) Relative cell survival (%)=absorbance value of compound treated well/absorbance value of untreated well×100

F98 rat glioma cells [2] = assay: In vitro 10B uptake in F98 cells (ICP-AES); assay type: cell-based; settings: 24 h incubation in DMEM with 1 mM boron compound
Procedure: For the in vitro ^10B uptake study, B16 mouse melanoma cells, C6 rat glioma cells, and F98 rat glioma cells were used. B16 and C6 cells were used for in vitro testing at Osaka Prefecture University. Based on results from initial in vitro screening, the in vitro ^10B uptake study using F98 glioma cells were performed at Osaka Medical College. Four hundred thousand cells were seeded in a tissue culture dish (100 × 20 mm; Becton Dickinson, Franklin Lakes, NJ, USA) with DMEM supplemented with 10% FBS and 10% penicillin and streptomycin at 37 °C in a 5% CO2 atmosphere. After incubation for 4 days at 37 °C, the medium was removed, and DMEM with 10% FBS containing 1 mM KA-BSH, BSH, or BPA was added to each dish. The cells were incubated for an additional 24 h at 37 °C. The medium was then removed, and the cells were washed twice with 4 °C phosphate-buffered saline (PBS) and detached with trypsin–ethylenediamine tetraacetic acid solution. PBS was then added, and cells were digested overnight with 1 N nitric acid solution (Wako Pure Chemical Industries, Osaka, Japan), and ^10B uptake was determined by inductively coupled plasma atomic emission spectrometry (ICP-AES) using an iCAP6000 emission spectrometer (Hitachi High-Technologies, Tokyo, Japan).

F98 glioma bearing rats = assay: Biodistribution in F98 glioma bearing rats (ICP-AES); assay type: in vivo, rat; settings: iv
Description: All animal experimental procedures were approved by the Animal Use Review Board and Ethical Committee of Osaka Medical College (No. 25092, 28 October 2015) and Kyoto University Research Reactor Institute (KURRI, No. 25030-13, 1 April 2015), and performed following the Guide for the Care and Use of Laboratory Animals. Eight-week-old, male Fischer 344 rats weighing between 200 and 250 g were used (Japan SLC, Inc. Shizuoka, Japan). Rats were anesthetized with an intraperitoneal (ip) injection of a mixture of medetomidine 0.15 mg, midazolam 2 mg, and butorphanol 2.5 mg/kg body weight (bw). The head of each rat was fixed with a stereotactic frame (Model 900; David Kopf Instruments, Tujunga, CA, USA). The scalp was incised at the midline and a small burr hole was drilled into the skull (1 mm posterior and 4 mm right-lateral to the bregma), using an electric drill. And then, F98 glioma cells were injected into the brain using a 25 µL Hamilton microsyringe with a 26-gauge needle (model 1700 RN, Hamilton Bonaduz AG, Bonaduz, Switzerland). The needle was inserted at a 5 mm depth from the skull and F98 cells were diluted in 10 µL of DMEM containing low-gelling temperature agarose at a concentration of either 10^3 for therapeutic experiments or 10^5 cells for biodistribution experiments. They were injected over 30 s using an automatic infuser pump. The needle entry hole was immediately sealed with bone wax and the incised scalp was closed with 3-0 silk sutures (Ethicon, North Ryde, NSW). After surgery, all animals were given atipamezole hydrochloride (0.15 mg/kg bw, ip).
Biodistribution studies were performed in Fischer rats bearing intracerebral implants of F98 rat glioma cells. 10–13 days after tumor implantation of 10^5 F98 glioma cells, when signs of a progressively growing tumor were evident (weight loss, lethargy, hunching, and ataxia), biodistribution studies were initiated at which time the animals had tumors weighing 90–180 mg. […] To compare its biodistribution with that of BPA or BSH, another group of rats received an iv injection of BPA at a concentration of 10 mg ^10B/kg bw or BSH at a concentration of 30 mg ^10B/kg bw. Biodistribution was determined 1 and 3 h after termination of iv injection. Animals were euthanized by an overdose of sevoflurane following which tumors and normal tissues, consisting of ipsilateral brain, contralateral brain, blood, heart, lung, liver, spleen, kidney, skin, and muscle, were removed and weighed for ^10B determination by ICP-AES.

N[C@@H](Cc1ccc(B(O)O)cc1)C(=O)O [BPA, boronophenylalanine, reference compound]
IC50 (F98 rat glioma cells [1]): > 20000 µM | 10B concentration of F98 rat glioma cells (F98 rat glioma cells [2]): 0.654 ± 0.062 µg 10B/10^7 cells | 10B concentration, Blood (F98 glioma bearing rats; 10 mg 10B/kg, 1 h): 6.65 µg 10B/g | 10B concentration, Contralateral brain (F98 glioma bearing rats; 10 mg 10B/kg, 1 h): 3.19 µg 10B/g | 10B concentration, Heart (F98 glioma bearing rats; 10 mg 10B/kg, 1 h): 6.12 µg 10B/g | 10B concentration, Ipsilateral brain (F98 glioma bearing rats; 10 mg 10B/kg, 1 h): 2.94 µg 10B/g | 10B concentration, Kidney (F98 glioma bearing rats; 10 mg 10B/kg, 1 h): 27.57 µg 10B/g | 10B concentration, Liver (F98 glioma bearing rats; 10 mg 10B/kg, 1 h): 5.40 µg 10B/g | 10B concentration, Lung (F98 glioma bearing rats; 10 mg 10B/kg, 1 h): 5.74 µg 10B/g | 10B concentration, Muscle (F98 glioma bearing rats; 10 mg 10B/kg, 1 h): 5.25 µg 10B/g | 10B concentration, Skin (F98 glioma bearing rats; 10 mg 10B/kg, 1 h): 7.22 µg 10B/g | 10B concentration, Spleen (F98 glioma bearing rats; 10 mg 10B/kg, 1 h): 7.58 µg 10B/g | 10B concentration, Tumor (F98 glioma bearing rats; 10 mg 10B/kg, 1 h): 13.54 µg 10B/g and 13.54 ± 4.82 µg 10B/g | T/Bl (tumor to blood ratio) (F98 glioma bearing rats; 10 mg 10B/kg, 1 h): 2.00 | T/Br (tumor to normal contralateral brain ratio) (F98 glioma bearing rats; 10 mg 10B/kg, 1 h): 4.21 | 10B concentration, Blood (F98 glioma bearing rats; 10 mg 10B/kg, 3 h): 4.41 µg 10B/g | 10B concentration, Contralateral brain (F98 glioma bearing rats; 10 mg 10B/kg, 3 h): 2.95 µg 10B/g | 10B concentration, Heart (F98 glioma bearing rats; 10 mg 10B/kg, 3 h): 3.92 µg 10B/g | 10B concentration, Ipsilateral brain (F98 glioma bearing rats; 10 mg 10B/kg, 3 h): 3.29 µg 10B/g | 10B concentration, Kidney (F98 glioma bearing rats; 10 mg 10B/kg, 3 h): 11.69 µg 10B/g | 10B concentration, Liver (F98 glioma bearing rats; 10 mg 10B/kg, 3 h): 3.54 µg 10B/g | 10B concentration, Lung (F98 glioma bearing rats; 10 mg 10B/kg, 3 h): 4.12 µg 10B/g | 10B concentration, Muscle (F98 glioma bearing rats; 10 mg 10B/kg, 3 h): 4.89 µg 10B/g | 10B concentration, Skin (F98 glioma bearing rats; 10 mg 10B/kg, 3 h): 4.80 µg 10B/g | 10B concentration, Spleen (F98 glioma bearing rats; 10 mg 10B/kg, 3 h): 6.02 µg 10B/g | 10B concentration, Tumor (F98 glioma bearing rats; 10 mg 10B/kg, 3 h): 11.05 µg 10B/g | T/Bl (tumor to blood ratio) (F98 glioma bearing rats; 10 mg 10B/kg, 3 h): 2.53 | T/Br (tumor to normal contralateral brain ratio) (F98 glioma bearing rats; 10 mg 10B/kg, 3 h): 3.83

dodecaboranethiol [BSH, reference compound]
IC50 (F98 rat glioma cells [1]): 1680 µM | 10B concentration of F98 rat glioma cells (F98 rat glioma cells [2]): 0.508 ± 0.072 µg 10B/10^7 cells | 10B concentration, Blood (F98 glioma bearing rats; 30 mg 10B/kg, 1 h): 19.17 µg 10B/g | 10B concentration, Contralateral brain (F98 glioma bearing rats; 30 mg 10B/kg, 1 h): 0.32 µg 10B/g | 10B concentration, Heart (F98 glioma bearing rats; 30 mg 10B/kg, 1 h): 3.25 µg 10B/g | 10B concentration, Ipsilateral brain (F98 glioma bearing rats; 30 mg 10B/kg, 1 h): 0.44 µg 10B/g | 10B concentration, Kidney (F98 glioma bearing rats; 30 mg 10B/kg, 1 h): 20.84 µg 10B/g | 10B concentration, Liver (F98 glioma bearing rats; 30 mg 10B/kg, 1 h): 20.81 µg 10B/g | 10B concentration, Lung (F98 glioma bearing rats; 30 mg 10B/kg, 1 h): 12.70 µg 10B/g | 10B concentration, Muscle (F98 glioma bearing rats; 30 mg 10B/kg, 1 h): 5.25 µg 10B/g | 10B concentration, Skin (F98 glioma bearing rats; 30 mg 10B/kg, 1 h): 7.99 µg 10B/g | 10B concentration, Spleen (F98 glioma bearing rats; 30 mg 10B/kg, 1 h): 5.68 µg 10B/g | 10B concentration, Tumor (F98 glioma bearing rats; 30 mg 10B/kg, 1 h): 5.49 µg 10B/g and 5.49 ± 0.25 µg 10B/g | T/Bl (tumor to blood ratio) (F98 glioma bearing rats; 30 mg 10B/kg, 1 h): 0.29 | T/Br (tumor to normal contralateral brain ratio) (F98 glioma bearing rats; 30 mg 10B/kg, 1 h): 17.61 | 10B concentration, Blood (F98 glioma bearing rats; 30 mg 10B/kg, 3 h): 5.16 µg 10B/g | 10B concentration, Contralateral brain (F98 glioma bearing rats; 30 mg 10B/kg, 3 h): 0.24 µg 10B/g | 10B concentration, Heart (F98 glioma bearing rats; 30 mg 10B/kg, 3 h): 1.15 µg 10B/g | 10B concentration, Ipsilateral brain (F98 glioma bearing rats; 30 mg 10B/kg, 3 h): 0.36 µg 10B/g | 10B concentration, Kidney (F98 glioma bearing rats; 30 mg 10B/kg, 3 h): 10.83 µg 10B/g | 10B concentration, Liver (F98 glioma bearing rats; 30 mg 10B/kg, 3 h): 8.10 µg 10B/g | 10B concentration, Lung (F98 glioma bearing rats; 30 mg 10B/kg, 3 h): 4.92 µg 10B/g | 10B concentration, Muscle (F98 glioma bearing rats; 30 mg 10B/kg, 3 h): 0.87 µg 10B/g | 10B concentration, Skin (F98 glioma bearing rats; 30 mg 10B/kg, 3 h): 4.00 µg 10B/g | 10B concentration, Spleen (F98 glioma bearing rats; 30 mg 10B/kg, 3 h): 2.74 µg 10B/g | 10B concentration, Tumor (F98 glioma bearing rats; 30 mg 10B/kg, 3 h): 3.01 µg 10B/g | T/Bl (tumor to blood ratio) (F98 glioma bearing rats; 30 mg 10B/kg, 3 h): 0.61 | T/Br (tumor to normal contralateral brain ratio) (F98 glioma bearing rats; 30 mg 10B/kg, 3 h): 12.71
